# ChEMBL document CHEMBL3885881, “DrugMatrix”
# Organism: Rattus norvegicus
# Assay: DrugMatrix - Regimen: Daily Repeat
# Format: toxicity, organism-based, Sprague-Dawley
# Design: regimen Daily Repeat, gender Male, age 6-8 weeks
# Conditions: in vivo, po, route oral GAVAGE, vehicle .5 % CMC; for ABSOLUTE BASOPHIL / ABSOLUTE EOSINOPHIL / ABSOLUTE LYMPHOCYTE / ABSOLUTE MONOCYTE / ABSOLUTE SEGMENTED NEUTROPHIL / BASOPHIL / EOSINOPHIL / ERYTHROCYTE COUNT / HEMATOCRIT / HEMOGLOBIN / LEUKOCYTE COUNT / LYMPHOCYTE / MEAN CORPUSCULAR HEMOGLOBIN / MEAN CORPUSCULAR HEMOGLOBIN CONCENTRATION / MEAN CORPUSCULAR VOLUME / MONOCYTE / NEUTROPHIL / NUCLEATED RED BLOOD CELLS / PLATELET COUNT: tissue Blood; for ALANINE AMINOTRANSFERASE / ALBUMIN / ALKALINE PHOSPHATASE / ASPARTATE AMINOTRANSFERASE / BLOOD UREA NITROGEN / CARBON DIOXIDE / CHLORIDE / CHOLESTEROL / CREATINE PHOSPHOKINASE / CREATININE / GLUCOSE / LACTATE DEHYDROGENASE / LIPASE / PHOSPHORUS / POTASSIUM / SODIUM / TOTAL BILIRUBIN / TOTAL PROTEIN / URIC ACID: tissue Plasma
# [1] = 50 mg/kg, 120 h, dose level Low, time 5 day
# [2] = 1500 mg/kg, 72 h, dose level High, time 3 day
# [3] = 1500 mg/kg, 120 h, dose level High, time 5 day
structure (smiles),measurement,setting,value
CN(C)[C@@H]1C(O)=C(C(N)=O)C(=O)[C@@]2(O)C(O)=C3C(=O)c4c(O)ccc(Cl)c4[C@@](C)(O)[C@H]3C[C@@H]12 [CHLORTETRACYCLINE],ABSOLUTE BASOPHIL,[1],0 CELLS/uL
same,ABSOLUTE EOSINOPHIL,[1],0 CELLS/uL
same,ABSOLUTE LYMPHOCYTE,[1],12641 CELLS/uL
same,ABSOLUTE MONOCYTE,[1],0 CELLS/uL
same,ABSOLUTE SEGMENTED NEUTROPHIL,[1],859 CELLS/uL
same,BASOPHIL,[1],0%
same,EOSINOPHIL,[1],0%
same,ERYTHROCYTE COUNT,[1],5.53 x10E6/uL
same,HEMATOCRIT,[1],33.27%
same,HEMOGLOBIN,[1],13.43 G/DL
same,LEUKOCYTE COUNT,[1],13.5 x10E3/uL
same,LYMPHOCYTE,[1],93.33%
same,MEAN CORPUSCULAR HEMOGLOBIN,[1],24.33 pg
same,MEAN CORPUSCULAR HEMOGLOBIN CONCENTRATION,[1],40.4 G/DL
same,MEAN CORPUSCULAR VOLUME,[1],60.17 fL
same,MONOCYTE,[1],0%
same,NEUTROPHIL,[1],6.67%
same,NUCLEATED RED BLOOD CELLS,[1],0 /100WBC
same,PLATELET COUNT,[1],1240.33 x10E3/uL
same,ALANINE AMINOTRANSFERASE,[1],54 u/L
same,ALBUMIN,[1],4.03 G/DL
same,ALKALINE PHOSPHATASE,[1],291.33 u/L
same,ASPARTATE AMINOTRANSFERASE,[1],84 u/L
same,BLOOD UREA NITROGEN,[1],17.33 mg/dL
same,CARBON DIOXIDE,[1],22.67 mmol/L
same,CHLORIDE,[1],103.33 MEQ/L
same,CHOLESTEROL,[1],58.33 mg/dL
same,CREATINE PHOSPHOKINASE,[1],329.33 u/L
same,CREATININE,[1],0.2 mg/dL
same,GLUCOSE,[1],159.67 mg/dL
same,LACTATE DEHYDROGENASE,[1],155.33 u/L
same,LIPASE,[1],9.33 u/L
same,PHOSPHORUS,[1],12.97 mg/dL
same,POTASSIUM,[1],6.97 MEQ/L
same,SODIUM,[1],144.3 MEQ/L
same,TOTAL BILIRUBIN,[1],0.17 mg/dL
same,TOTAL PROTEIN,[1],5.73 G/DL
same,URIC ACID,[1],2.13 mg/dL
same,ABSOLUTE BASOPHIL,[2],0 CELLS/uL
same,ABSOLUTE EOSINOPHIL,[2],19 CELLS/uL
same,ABSOLUTE LYMPHOCYTE,[2],5616.67 CELLS/uL
same,ABSOLUTE MONOCYTE,[2],262.67 CELLS/uL
same,ABSOLUTE SEGMENTED NEUTROPHIL,[2],601.67 CELLS/uL
same,BASOPHIL,[2],0%
same,EOSINOPHIL,[2],0.33%
same,ERYTHROCYTE COUNT,[2],5.83 x10E6/uL
same,HEMATOCRIT,[2],36%
same,HEMOGLOBIN,[2],14.6 G/DL
same,LEUKOCYTE COUNT,[2],6.5 x10E3/uL
same,LYMPHOCYTE,[2],86%
same,MEAN CORPUSCULAR HEMOGLOBIN,[2],25.13 pg
same,MEAN CORPUSCULAR HEMOGLOBIN CONCENTRATION,[2],40.57 G/DL
same,MEAN CORPUSCULAR VOLUME,[2],61.8 fL
same,MONOCYTE,[2],4%
same,NEUTROPHIL,[2],9.67%
same,NUCLEATED RED BLOOD CELLS,[2],0 /100WBC
same,PLATELET COUNT,[2],1359 x10E3/uL
same,ALANINE AMINOTRANSFERASE,[2],54 u/L
same,ALBUMIN,[2],4.27 G/DL
same,ALKALINE PHOSPHATASE,[2],407 u/L
same,ASPARTATE AMINOTRANSFERASE,[2],99.33 u/L
same,BLOOD UREA NITROGEN,[2],17 mg/dL
same,CARBON DIOXIDE,[2],25 mmol/L
same,CHLORIDE,[2],104.33 MEQ/L
same,CHOLESTEROL,[2],70.33 mg/dL
same,CREATINE PHOSPHOKINASE,[2],633 u/L
same,CREATININE,[2],0.16 mg/dL
same,GLUCOSE,[2],163.67 mg/dL
same,LACTATE DEHYDROGENASE,[2],129.67 u/L
same,LIPASE,[2],9.33 u/L
same,PHOSPHORUS,[2],12.37 mg/dL
same,POTASSIUM,[2],5.95 MEQ/L
same,SODIUM,[2],148.37 MEQ/L
same,TOTAL BILIRUBIN,[2],0.23 mg/dL
same,TOTAL PROTEIN,[2],6 G/DL
same,URIC ACID,[2],1.87 mg/dL
same,ABSOLUTE BASOPHIL,[3],0 CELLS/uL
same,ABSOLUTE EOSINOPHIL,[3],167.33 CELLS/uL
same,ABSOLUTE LYMPHOCYTE,[3],18100 CELLS/uL
same,ABSOLUTE MONOCYTE,[3],0 CELLS/uL
same,ABSOLUTE SEGMENTED NEUTROPHIL,[3],1266 CELLS/uL
same,BASOPHIL,[3],0%
same,EOSINOPHIL,[3],0.67%
same,ERYTHROCYTE COUNT,[3],5.62 x10E6/uL
same,HEMATOCRIT,[3],34.33%
same,HEMOGLOBIN,[3],13.93 G/DL
same,LEUKOCYTE COUNT,[3],19.53 x10E3/uL
same,LYMPHOCYTE,[3],92.67%
same,MEAN CORPUSCULAR HEMOGLOBIN,[3],24.83 pg
same,MEAN CORPUSCULAR HEMOGLOBIN CONCENTRATION,[3],40.6 G/DL
same,MEAN CORPUSCULAR VOLUME,[3],61.17 fL
same,MONOCYTE,[3],0%
same,NEUTROPHIL,[3],6.67%
same,NUCLEATED RED BLOOD CELLS,[3],0.33 /100WBC
same,PLATELET COUNT,[3],1340 x10E3/uL
same,ALANINE AMINOTRANSFERASE,[3],61.33 u/L
same,ALBUMIN,[3],3.73 G/DL
same,ALKALINE PHOSPHATASE,[3],422.33 u/L
same,ASPARTATE AMINOTRANSFERASE,[3],86.33 u/L
same,BLOOD UREA NITROGEN,[3],19.67 mg/dL
same,CARBON DIOXIDE,[3],28.67 mmol/L
same,CHLORIDE,[3],100.67 MEQ/L
same,CHOLESTEROL,[3],57 mg/dL
same,CREATINE PHOSPHOKINASE,[3],301.67 u/L
same,CREATININE,[3],0.19 mg/dL
same,GLUCOSE,[3],151.33 mg/dL
same,LACTATE DEHYDROGENASE,[3],67 u/L
same,LIPASE,[3],10.33 u/L
same,PHOSPHORUS,[3],11.03 mg/dL
same,POTASSIUM,[3],5.95 MEQ/L
same,SODIUM,[3],144.1 MEQ/L
same,TOTAL BILIRUBIN,[3],0.17 mg/dL
same,TOTAL PROTEIN,[3],5.23 G/DL
same,URIC ACID,[3],1.57 mg/dL
